For eight molecules, EC50 and CC50 results are on record in patent publication US20250084088A1, “ANTIVIRAL COMPOUNDS AND METHODS OF MAKING AND USING THE SAME” (Gilead Sciences, Inc., priority 2023, published 2025).

One data set relates to RSV strain A2. In words: RSV Cellomics assay for RSV A2 antiviral activity (EC50-RSV-Hep2-96-Cellomics), Example Z. The settings on record: human respiratory syncytial virus, HEp-2, 72 h; Hep2 cells infected with RSV strain A2, MOI=0.05, 3 days, RSV F protein immunofluorescence. Format: cell-based. The procedure:
Example Z: RSV Cellomics Assay for RSV A2 Antiviral Activity (EC50-RSV-Hep2-96-Cellomics) 8×10^3 Hep2 cells are seeded into 96 well plates in 100 μL of media (DMEM supplemented with GlutaMAX, 10% FBS and Pen/Strep) and briefly spun at 50×g for 1 minute to attach cells. Cells were further allowed to attach with overnight incubation at 37° C.+5% CO2. The following day, the media was aspirated and 100 μL of fresh DMEM media containing 2% FBS was added. A three-fold dilution series of compounds of interest are then added to the plate using the Tecan D300e dispenser and the plate is normalized to the well with the highest volume of DMSO. The cells are next infected by adding 100 μL of media containing RSV strain A2 at an MOI=0.05 and the plates incubated for 3 days at 37° C.+5% CO2. Following the incubation, the media is removed, and the cells are washed once with 250 μL PBS and fixed with 250 μL ice-cold 100% methanol for 10 minutes at 4 C. The methanol is then removed and the plates air dried for 5 minutes and then washed once with 250 μL PBS to remove any residual methanol. The wells are then blocked 60 μL/well of BlockAid (B10710, Thermo-Fisher) for 1 hour at RT on rocker at which point the blocking buffer is carefully aspirated. Primary antibody against the RSV F protein (MAB 858-1) is then diluted 1:2000 in SuperBlock (37515, Thermo Fisher) and 50 μL of the primary antibody solution is added to each well. The plates are incubated at room temperature for 1 hour with gentle agitation and then washed with 250 μL of PBS-Tween 3 times. A goat anti-mouse AlexaFluor 647 conjugated secondary antibody (Sigma, A21235) is then diluted 1:2000 and Hoescht 33342 (H3570) at 1:1000 in SuperBlock and 50 μL added to the wells for 1 hour at 37° C. After incubation the antibody solution is aspirated, and the wells are then washed with 250 μL of PBS-Tween 3 times. To keep cells from drying out, 100 μL of PBS is added to each well and the plates are sealed with black plate seal. Fluorescence at the 647 nm wavelength is measured using a Cellomics CellInsight CX7 machine. Compound activity is determined as a percentage of the % positive cells (or average intensity) compared to DMSO treated RSV infected well controls following subtraction of uninfected controls. The EC50 values are then calculated using nonlinear regression analysis in GraphPad Prism.

The nature of data set [1]: MT4 CC50 cytotoxicity in uninfected cells (CC50-MT4-384), Example G. Format: cell-based. To be noted: human; uninfected MT-4 cells, 4-5 days, Cell-Titer Glo. The procedure:
Example G. HEp-2 and MT4 CC50 Cytotoxicity of the compounds was determined in uninfected cells using the cell viability reagent in a similar fashion as described before for other cell types ([…] et al., ANTIMICROB AGENTS CHEMOTHER. 2008, 52(2):655-65). HEp-2 (1.5×10^3 cells/well) and MT-4 (2×10^3 cells/well) cells were plated in 384-well plates and incubated with the appropriate medium containing 3-fold serially diluted compound ranging from 15 nM to 100,000 nM. Cells were cultured for 4-5 days at 37° C. Following the incubation, the cells were allowed to equilibrate to 25° C., and cell viability was determined by adding Cell-Titer Glo viability reagent. The mixture was incubated for 10 min, and the luminescence signal was quantified using an Envision plate reader. Untreated cell and cells treated at 2 μM puromycin (Sigma, St. Louis, MO) serve as 100% and 0% cell viability control, respectively. The percent of cell viability was calculated for each tested compound concentration relative to the 0% and 100% controls and the CC50 value was determined by non-linear regression as a compound concentration reducing the cell viability by 50%.

Usually EC50 stands for the concentration at which the effect is half-maximal. A low value points to higher potency in that assay. As usually defined, the CC50 is the concentration that lowers cell viability or growth by half. `COC(=O)OC[C@@]1(C#N)O[C@@H](c2ccc3c(N)ncnn23)[C@H](OC(C)=O)[C@@H]1OC(C)=O` [Compound 4, (2R,3S,4S,5S)-5-(4-aminopyrrolo[2,1-f][1,2,4]triazin-7-yl)-2-cyano-2-(((methoxycarbonyl)oxy)methyl)tetrahydrofuran-3,4-diyl diacetate]: the EC50 with RSV strain A2 was 54000 nM. The same molecule showed a CC50 in data set [1] above 50000 nM.
In turn, `CC(=O)O[C@H]1[C@H](c2ccc3c(N)ncnn23)O[C@](C#N)(COC(=O)OCC(C)C)[C@H]1OC(C)=O` [Compound 1, (2R,3S,4S,5S)-5-(4-aminopyrrolo[2,1-f][1,2,4]triazin-7-yl)-2-cyano-2-(((isobutoxycarbonyl)oxy)methyl)tetrahydrofuran-3,4-diyl diacetate] gave an EC50 in the data set with RSV strain A2 of 45900 nM. In data set [1], this molecule came in with a CC50 above 50000 nM.
On to `CC(=O)O[C@H]1[C@H](c2ccc3c(N)ncnn23)O[C@](C#N)(COC(=O)OC(C)C)[C@H]1OC(C)=O` [Compound 3, (2R,3S,4S,5S)-5-(4-aminopyrrolo[2,1-f][1,2,4]triazin-7-yl)-2-cyano-2-(((isopropoxycarbonyl)oxy)methyl)tetrahydrofuran-3,4-diyl diacetate], for which the EC50 in the data set on RSV strain A2 was 100000 nM. In data set [1], this molecule showed a CC50 above 50000 nM.
For `CCOC(=O)OC[C@@]1(C#N)O[C@@H](c2ccc3c(N)ncnn23)[C@H](OC(=O)OCC)[C@@H]1OC(=O)OCC` [Compound 6, (2R,3S,4S,5S)-5-(4-aminopyrrolo[2,1-f][1,2,4]triazin-7-yl)-2-cyano-2-(((ethoxycarbonyl)oxy)methyl)tetrahydrofuran-3,4-diyl diethyl bis(carbonate)], in that order: 68600 nM and above 50000 nM.
The corresponding values for `CCC(=O)O[C@H]1[C@H](c2ccc3c(N)ncnn23)O[C@](C#N)(COC(=O)OCC(C)C)[C@H]1OC(=O)CC` [Compound 2, (2R,3S,4S,5S)-5-(4-aminopyrrolo[2,1-f][1,2,4]triazin-7-yl)-2-cyano-2-(((isobutoxycarbonyl)oxy)methyl)tetrahydrofuran-3,4-diyl dipropionate] are 49200 nM and above 50000 nM.
For `CCOC(=O)OC[C@@]1(C#N)O[C@@H](c2ccc3c(N)ncnn23)[C@H](OC(C)=O)[C@@H]1OC(C)=O` [Compound 5, (2R,3S,4S,5S)-5-(4-aminopyrrolo[2,1-f][1,2,4]triazin-7-yl)-2-cyano-2-(((ethoxycarbonyl)oxy)methyl)tetrahydrofuran-3,4-diyl diacetate], in that order: 61500 nM and above 50000 nM.
The molecule `N#C[C@]1(CO)O[C@@H](c2ccc3c(N)ncnn23)[C@H](O)[C@@H]1O` [Compound 0, (2R,3S,4R,5S)-5-(4-aminopyrrolo[1,2-f][1,2,4]triazin-7-yl)-3,4-dihydroxy-2-(hydroxymethyl)tetrahydrofuran-2-carbonitrile, reference compound] yielded an EC50 in the data set with RSV strain A2 of 9740 nM. Besides, the CC50 in data set [1] is above 50000 nM.
In data set [1], `CC(=O)O[C@H]1[C@H](c2ccc3c(N)ncnn23)O[C@](C#N)(COC(=O)OC(C)OC(=O)[C@H](C(C)C)N(C)C)[C@H]1OC(C)=O` (stereo partly drawn) [Compound 7, (2R,3S,4S,5S)-5-(4-aminopyrrolo[2,1-f][1,2,4]triazin-7-yl)-2-cyano-2-((8S)-8-isopropyl-5,9-dimethyl-3,7-dioxo-2,4,6-trioxa-9-azadecyl)tetrahydrofuran-3,4-diyl diacetate] displayed a CC50 above 50000 nM.
